Source: patent US20030068615A1, “Polypeptides that bind HIV gp120 and related nucleic acids, antibodies, compositions, and methods of use” (priority 1999, published 2003)
Values joined by “and” are separate entries in the source; they are usually repeats but may differ in a detail not shown here. Equal values may be shown once. Read-outs that look alike come from different tables or passages of the source.

Target: HIV-1LAI envelope gp120 (Human immunodeficiency virus type 1 group M subtype B, UniProt P03377)
Format: binding
Conditions: for number of radioactive decays (counts) counted: human CD4 21-mer scan, empty control 2075; for Counts per 20′ Average-background: CCR5 18-mer scan, radiolabeled HIV-1LAI gp120; for Relative % of Control: mean of two syntheses and binding experiments ± average deviation, wild-type = 100%; for Binding Results For Window Length (counts bound-background), 9: 9-mer starting at the first residue of the printed sequence; for Binding Results For Window Length (counts bound-background), 12: 12-mer starting at the first residue of the printed sequence
[1] = Panel D, 9-mers and 12-mers of CD4, empty control […]
[2] = Panel C, 15-mers and 18-mers of CD4, empty control 556
[3] = CXCR4 18-mer scan, background subtracted, empty control 0
[4] = CXCR4 18-mer scan, empty control 412
[5] = Panel F, sequential alanine replacements of CD4 polypeptides, duplicate series, empty control 569
[6] = Panel B, 15-mers and 18-mers of CD4, empty control 575
[7] = Panel E, 9-mers and 12-mers of CD4, empty control 571
[8] = Panel G, alanine replacements and serial truncations (Z) of CD4 polypeptides, empty control 580
[9] = Panel A, 21-mers of CD4, empty control 515 and 617
[10] = STRL33 18-mer scan, background subtracted, first of two count columns
[11] = STRL33 18-mer scan, background subtracted, second of two count columns
[12] = STRL33 amino terminus, background subtracted

VQLLVFGLTANS
COUNTS of radiolabeled gp120 retained [1]: 747 counts

DQKEEVQLLVFG
COUNTS of radiolabeled gp120 retained [1]: 1624 counts

FQKASSIVYKKEGEQ
COUNTS of radiolabeled gp120 retained [2]: 637 counts

LVFGLTANS
COUNTS of radiolabeled gp120 retained [1]: 522 counts

VLGGVAGLLLFIGLGIFFCVR [human CD4 401-421]
number of radioactive decays (counts) counted: 3738 counts

ILPGIVILSCYCIIISKL [CXCR4 segment 209-226]
radioactive counts recorded in twenty minutes [3]: 192 counts
radioactive counts recorded in twenty minutes [4]: 604 counts

EEVQALVFGLTANSD
COUNTS of radiolabeled gp120 retained [5]: 11258 counts and 12603 counts

TVEKLTGSGELWWQA
COUNTS of radiolabeled gp120 retained [2]: 550 counts

LLQGQSLTL
COUNTS of radiolabeled gp120 retained [1]: 568 counts

DQGNFPLIIKNLKIEDSD
COUNTS of radiolabeled gp120 retained [6]: 598 counts

PLAFTVEKL
COUNTS of radiolabeled gp120 retained [7]: 597 counts

LILINCKRLKSMTDIYLL [CCR5 segment 53-70]
Counts per 20′ Average-background (background subtracted): 2 counts per 20′

LLNLAISDLFFLLTVPFW [CCR5 segment 69-86]
Counts per 20′ Average-background (background subtracted): 144 counts per 20′

QKASSIVYKKEGEQVEFS
COUNTS of radiolabeled gp120 retained [2]: 602 counts

VSKREKAVWVLNPEAGMWQCL [human CD4 351-371]
number of radioactive decays (counts) counted: 2034 counts

GEQVEFAFPLAFTVE
COUNTS of radiolabeled gp120 retained [8]: 21681 counts and 20072 counts

FPLAFTVEKLTGSGELWW
COUNTS of radiolabeled gp120 retained [2]: 586 counts

CEVEDQKEE
COUNTS of radiolabeled gp120 retained [1]: 555 counts

EEVQLAVFGLTANSD
COUNTS of radiolabeled gp120 retained [5]: 11954 counts and 13690 counts

SFPLAFTVEKLTGSGELWWQA
COUNTS of radiolabeled gp120 retained [9]: 2284 counts

DIVVLAFQKASSIVYKKEGEQ
COUNTS of radiolabeled gp120 retained [9]: 788 counts

ICEVEDQKEEVQLLVFGL
COUNTS of radiolabeled gp120 retained [6]: 3898 counts

HCCINPIIYAFVGEKFRN [CCR5 segment 289-]
Counts per 20′ Average-background (background subtracted): 200 counts per 20′

TGLYFIGFFSGIFFIILL
Counts per 20′ Average-background (background subtracted): 80 counts per 20′

MEGISIATSDNYTEEMGS
Relative % of Control (CXCR4 (1-18) alanine variants): 7 ± 0.4%

IVYKKEGEQVEF
COUNTS of radiolabeled gp120 retained [7]: 533 counts

LLTIDRYLAVVHAVFALK
Counts per 20′ Average-background (background subtracted): 31 counts per 20′

WTCTVLQNQKKVEFK
COUNTS of radiolabeled gp120 retained [2]: 566 counts

VEFSFPLAFTVE
COUNTS of radiolabeled gp120 retained [7]: 518 counts

SLKILSKGKRGGHSSVST [CXCR4 segment 325-342]
radioactive counts recorded in twenty minutes [3]: 285 counts
radioactive counts recorded in twenty minutes [4]: 697 counts

VTQDPKLQMGKKLPLHLTLPQ [human CD4 266-286]
number of radioactive decays (counts) counted: 2075 counts

QAKRMTWGKVTSLLIWVI
radioactive counts recorded in twenty minutes [10]: −71.5 counts
radioactive counts recorded in twenty minutes [11]: −31.5 counts

EEHQAFLQFSKV
Binding Results For Window Length (counts bound-background), 9 [12]: 6060 counts
Binding Results For Window Length (counts bound-background), 12 [12]: 5598 counts

LLSDSGQVLLESNIKVLPTWS [human CD4 371-391]
number of radioactive decays (counts) counted: 2375 counts

EEVQLLVAGLTANSD
COUNTS of radiolabeled gp120 retained [5]: 9573 counts and 11480 counts

KASSIVYKKEGEQVEFSFPLA [human CD4 206-226]
COUNTS of radiolabeled gp120 retained [9]: 30873 counts
number of radioactive decays (counts) counted: 14347 counts

VEFSFPLAFTVEKLTGSG
COUNTS of radiolabeled gp120 retained [2]: 533 counts

MEGISIYTSDNATEEMGS
Relative % of Control (CXCR4 (1-18) alanine variants): 28 ± 2%

SKGHQKRKALKTTVILIL [CXCR4 segment 229-246]
radioactive counts recorded in twenty minutes [3]: 140 counts
radioactive counts recorded in twenty minutes [4]: 552 counts

LLRCRNEKKRHRAVRLIF
Counts per 20′ Average-background (background subtracted): 102 counts per 20′

CTVLQNQKKVEFKID
COUNTS of radiolabeled gp120 retained [2]: 608 counts

YAMTSFHYTIMVTEAIAY [STRL33 segment 261-278]
radioactive counts recorded in twenty minutes [10]: 2688.5 counts
radioactive counts recorded in twenty minutes [11]: 2359.5 counts

LNPEAGMWQCLLSDSGQVLLE [human CD4 361-381]
number of radioactive decays (counts) counted: 6316 counts

KEGEQVEFSFPL
COUNTS of radiolabeled gp120 retained [7]: 710 counts

KVEFKIDIVVLAFQKASS
COUNTS of radiolabeled gp120 retained [2]: 1011 counts

IIKNLKIEDSDTYICEVE
COUNTS of radiolabeled gp120 retained [6]: 751 counts

FKIDIVVLA
COUNTS of radiolabeled gp120 retained [7]: 568 counts

VVLAFQKAS
COUNTS of radiolabeled gp120 retained [7]: 600 counts

YICEVEDQKEEVQLLVFG
COUNTS of radiolabeled gp120 retained [6]: 4611 counts

FPLIIKNLKIEDSDT
COUNTS of radiolabeled gp120 retained [6]: 539 counts

QEFFGLNNCSSSNRLDQA [CCR5 segment 261-]
Counts per 20′ Average-background (background subtracted): 63 counts per 20′

VFGLTANSDTHL
COUNTS of radiolabeled gp120 retained [1]: 548 counts

MEGIAIYTSDNYTEEMGS [CXCR4 (1-18) variant S5A]
Relative % of Control (CXCR4 (1-18) alanine variants): 133 ± 5%

KEGEQVEFSFPLAFTVEK
COUNTS of radiolabeled gp120 retained [2]: 3117 counts

FQKASSIVYKKE
COUNTS of radiolabeled gp120 retained [7]: 577 counts

MDYQVSSPIYDINYYTAE
Relative % of Control (CCR5 (1-18) alanine variants): 64 ± 6%

GEQVEFSFPAAFTVE
COUNTS of radiolabeled gp120 retained [8]: 10024 counts and 10589 counts

RNYLLVFFQKHIAKRFCK
Counts per 20′ Average-background (background subtracted): 65 counts per 20′

GEQVEFSFPLTFTVE
COUNTS of radiolabeled gp120 retained [8]: 17397 counts and 18318 counts

QVEFSFPLA
COUNTS of radiolabeled gp120 retained [7]: 1205 counts

QKEEVQLLV
COUNTS of radiolabeled gp120 retained [1]: 636 counts

FSGIFFIILLTIDRYLAV [CCR5 segment 113-]
Counts per 20′ Average-background (background subtracted): 83 counts per 20′

VEFSFPLAFTVEKLTGSGELW
COUNTS of radiolabeled gp120 retained [9]: 633 counts

ANSDTHLLQGQSLTL
COUNTS of radiolabeled gp120 retained [6]: 542 counts

LKFRKNFWKLVKDIGCLP [STRL33 segment 293-310]
radioactive counts recorded in twenty minutes [10]: 920.5 counts
radioactive counts recorded in twenty minutes [11]: 957.5 counts

VEFKIDIVVLAFQKASSIVYK
COUNTS of radiolabeled gp120 retained [9]: 725 counts

ASSIVYKKEGEQVEF
COUNTS of radiolabeled gp120 retained [2]: 589 counts

THLLQGQALTLTLES
COUNTS of radiolabeled gp120 retained [5]: 8659 counts and 5151 counts

YVGVWIPALLLTIPDFIF
radioactive counts recorded in twenty minutes [3]: 124 counts
radioactive counts recorded in twenty minutes [4]: 536 counts

KIDIVVLAFQKASSIVYKKEG
COUNTS of radiolabeled gp120 retained [9]: 1394 counts
number of radioactive decays (counts) counted: 3681 counts

AEVQLLVFGLTANSD
COUNTS of radiolabeled gp120 retained [5]: 16220 counts and 14590 counts

IVYKKEGEQ
COUNTS of radiolabeled gp120 retained [7]: 534 counts

KIEDSDTYICEVEDQ
COUNTS of radiolabeled gp120 retained [6]: 1088 counts

DTYICEVED
COUNTS of radiolabeled gp120 retained [1]: 1043 counts

EKVVYVGVWIPALLLTIP [CXCR4 segment 153-170]
radioactive counts recorded in twenty minutes [3]: 147 counts
radioactive counts recorded in twenty minutes [4]: 559 counts

QVEFSFPLAFTV
COUNTS of radiolabeled gp120 retained [7]: 1636 counts

GLTANSDTHLLQGQS
COUNTS of radiolabeled gp120 retained [6]: 532 counts

QKKVEFKIDIVVLAF
COUNTS of radiolabeled gp120 retained [2]: 1333 counts

KEGEQVEFSFPLAFT
COUNTS of radiolabeled gp120 retained [2]: 3253 counts

EDQKEEVQLLVF
COUNTS of radiolabeled gp120 retained [1]: 1379 counts

SSQEEEQAFLQFSKV
Binding Results For Window Length (counts bound-background), 9 [12]: 287 counts
Binding Results For Window Length (counts bound-background), 12 [12]: 4455 counts
Binding Results For Window Length (counts bound-background), 15 (STRL33 amino terminus, 15-mer starting at the first residue of the printed sequence, background subtracted): 4732 counts

MEGISIYTSDNYTEEMGA
Relative % of Control (CXCR4 (1-18) alanine variants): 79 ± 1%

AFQKASSIV
COUNTS of radiolabeled gp120 retained [7]: 595 counts

IIKNLKIEDSDT
COUNTS of radiolabeled gp120 retained [1]: 511 counts

LILAFISLDRYLAIVHAT
radioactive counts recorded in twenty minutes [3]: 107 counts
radioactive counts recorded in twenty minutes [4]: 519 counts

MDYQASSPIYDINYYTSE [CCR5 (1-18) variant V5A]
Relative % of Control (CCR5 (1-18) alanine variants): 82 ± 3%

FPLAFTVEKLTGSGELWWQAE
COUNTS of radiolabeled gp120 retained [9]: 6276 counts

LGAKFKTSAQHALTSVSR
radioactive counts recorded in twenty minutes [3]: 200 counts
radioactive counts recorded in twenty minutes [4]: 612 counts

VSEADDRYICDRFYPNDL [CXCR4 segment 177-194]
radioactive counts recorded in twenty minutes [3]: 157 counts
radioactive counts recorded in twenty minutes [4]: 569 counts

EDSDTYICE
COUNTS of radiolabeled gp120 retained [1]: 650 counts

YAAAQWDFGNTMCQLLTG [CCR5 segment 89-]
Counts per 20′ Average-background (background subtracted): 494 counts per 20′

QALPQYAGSGNLTLALEAKTG [human CD4 286-306]
number of radioactive decays (counts) counted: 2364 counts

VEFSFPLAFTVEKLT
COUNTS of radiolabeled gp120 retained [2]: 899 counts

KEEVQLLVFGLTANS
COUNTS of radiolabeled gp120 retained [6]: 3485 counts

MAYQVSSPIYDINYYTSE [CCR5 (1-18) variant D2A]
Relative % of Control (CCR5 (1-18) alanine variants): 125 ± 8%

EFKIDIVVLAFQKASSIV
COUNTS of radiolabeled gp120 retained [2]: 799 counts

LKIEDSDTYICE
COUNTS of radiolabeled gp120 retained [1]: 635 counts

AFVSLKFRKNFWKLVKDI [STRL33 segment 289-306]
radioactive counts recorded in twenty minutes [10]: 808.5 counts
radioactive counts recorded in twenty minutes [11]: 1040.5 counts

FYPNDLWVVVFQFQHIMV [CXCR4 segment 189-206]
radioactive counts recorded in twenty minutes [3]: 416 counts
radioactive counts recorded in twenty minutes [4]: 828 counts

TANSDTHLLQGQSLT
COUNTS of radiolabeled gp120 retained [6]: 513 counts

ICEVEDQKE
COUNTS of radiolabeled gp120 retained [1]: 596 counts

ACLNPVLYAFVSLKFRKN [STRL33 segment 281-298]
radioactive counts recorded in twenty minutes [10]: 4173.5 counts
radioactive counts recorded in twenty minutes [11]: 4515.5 counts
